The results in this text go back to patent US10793558B2, “Quinoline oxadiazoles as cytoprotective agents” (priority 2015, dated 2020).

A value given as a limit tells only on which side of the number the result lay.

One may read the EC50 as the midpoint of the concentration-response curve. A higher EC50 goes with a less potent agent.

One assay has as its system CSM14.1 neuronal cells. Kind of assay: Cell Survival Assay (thapsigargin-treated CSM14.1 neuronal cells, CELLTITER-GLO luminescence). The class given is cell-based. As to conditions: CSM14.1 cells, about 15 μM thapsigargin, overnight (about 16 to 24 hrs), 2 hrs preincubation. As to the method:
CSM14.1 neuronal cells were maintained in Complete Medium at 32° C.; wherein the Complete Medium contained Dulbecco's modified eagle medium (DMEM) with 10% fetal bovine serum (FSB), 1% L-glutamine, 100 IU/mL penicillin, and 100 μg/mL streptomycin. […] Seeding was performed using a MultiDrop Combi reagent broadcaster. The plates were incubated overnight at 32° C. A test compound was prepared by 2-fold serial dilution in 100% DMSO using a BIOMEK® 2000 liquid handler (Beckman Coulter). A dose-response curve containing 10 concentrations of the test compound was obtained. Using a BIOMEK® FX liquid handler (Beckman Coulter), 2.5 μL of the test compound was transferred from the 100% DMSO serial dilution plate to an intermediate plate containing 47.5 μL of DMEM Assay Medium containing 2% FBS, 100 IU/mL penicillin, and 100 μg/mL streptomycin and mixed. […] The tissue culture media (4 μL) containing vehicle only was transferred manually to each control cell using a 16 channel electronic pipette. […] High luminescence indicates cell survival.
In general terms: Cellular ATP, detected with luciferase, serves as a proxy for viable cell number.

The test system of another assay is HEK293 cells; N2a cells. As to the kind of experiment: Cell Rescue Assay: Protection against Thapsigargin (TG)-induced Cell-death (ALAMARBLUE). In kind it is cell-based, human (HEK293); mouse (N2a). As to conditions: compound 20 μM, 2 hrs before thapsigargin (15 μM for HEK293 cells and 1 μM for N2a cells), 24 hrs; cell line not given; read-out: Cell Survival %. As for the experimental part:
Protection against Thapsigargin (TG)-induced Cell-death. Human embryonic kidney (HEK293) cells were grown in Dulbecco's Modified Eagle's Medium (DMEM) with 10% FBS and 1% antibiotic antimycotic solution (ABAM). Mouse neuroblastoma (N2a) cells were grown in 1:1 DMEM:OPTI-MEM® with 5% FBS and 1% ABAM. All cells were grown in 10% CO2 in a humidified environment of the incubator. Cells grown in 96-well plates were exposed to a test compound (20 μM) for 2 hrs before addition of thapsigargin (15 μM for HEK293 cells and 1 μM for N2a cells) to induce ER stress. After incubation in cell-culture incubator for 24 hrs, ALAMARBLUE® regent (10% v/v) was added to the wells. Fluorescence reading was taken 2 hrs after the addition of the ALAMARBLUE® regent. Cell-viability was calculated as a percentage of relative fluorescence unit (RFU) compared to control. […] The biological results are summarized in Table 2, where each compound was tested at 20 μM and where A represents a viability greater than 50%, B represents a viability greather than 10% and less than 50%, C represents a value below 10%.
(The colour change of resazurin is a common sign of viable cells or microbes.)

The subject of a further assay is SERCA. As to the kind of experiment: Ca-ATPase Assay (NADH-linked, enzyme-coupled ATPase assay, microsomal preparations from HEK 293 cells). The class given is biochemical, human. The following applies: pH 7.0, 5 mM ATP, relative to controls. As for the experimental part: A Ca-ATPase assay was performed using microsomal preparations from HEK 293 cells at a series of calcium concentrations corresponding to the physiological range, relative to controls. The ATP hydrolysis rate was measured over a range of calcium concentrations in the presence of test compounds using an NADH-linked, enzyme-coupled ATPase assay adapted for 96-well microplates, with Vmax determined by fitting the ATPase calcium-dependence to the Hill function. Each well contained 2 μg or 7 μg of SR vesicles (optimized for skeletal or cardiac SR, respectively), 50 mM MOPS (pH 7.0), 100 mM KCl, 5 mM MgCl2, 1 mM EGTA, 0.2 mM NADH, 1 mM phosphoenol pyruvate, 5 IU pyruvate kinase, 5 IU lactate dehydrogenase, and 3.5 μg/mL A23187 (a calcium ionophore). CaCl2 was added to set free [Ca^2+] to the specific values. The assay was started upon addition of ATP at a final concentration of 5 mM, and read in a SpectraMax Plus microplate spectrophotometer. The results are summarized in Table 4, where A represents an increase in SERCA Vmax greater than 50% and B represents a value greater than 10% and less than 50%.

In a further assay the test system is Ob/ob mice. Kind of assay: Effect of a SERCA Agonist on the Level of Blood Glucose in Ob/ob mice. The following applies: 50 mg/kg i.p. once a day, 5 days, fasting glucose at baseline and 4 days after administration. The class given is in vivo, mouse. As to the method:
Ob/ob mice (10 weeks old, n=7) were intraperitoneally (i.p.) injected with 100 μL of a solution containing 0 (vehicle) or 50 mg/kg of a test compound once a day for a total of 5 days. Fasting glucose was measured at baseline and 4 days after the administration of the test compound. Glucose levels were measured in blood samples drawn from the tail vein using a handheld glucose sensor. Compound effects on blood glucose are shown in Table 5 where A represents a 10-20% reduction in blood glucose, B represents a 21-30% reduction in blood glucose, and C represents a greater than 30% reduction in blood glucose levels.

In turn, `Cc1ccc2cccc(-c3nc(-c4ccc(Cl)cc4)no3)c2n1` [Compound B4, 3-(4-Chlorophenyl)-5-(2-methylquinolin-8-yl)-1,2,4-oxadiazole] gave an EC50 in the assay on CSM14.1 neuronal cells of less than 1000 nM. For the same compound, the viability at 20 µM in the assay with HEK293 cells; N2a cells was more than 50%. Besides, the “SERCA Vmax Increase” value in the assay with SERCA was “A (an increase in SERCA Vmax greater than 50%)”. The Glucose level reduction result in the assay with Ob/ob mice is on record as “C (a greater than 30% reduction in blood glucose levels)”.

In the assay on CSM14.1 neuronal cells, `Cc1ccc2cccc(-c3nc(-c4ccc(OC(C)C)cc4)no3)c2n1` [Compound B1, 3-(4-Isopropoxyphenyl)-5-(2-methylquinolin-8-yl)-1,2,4-oxadiazole] yielded a half-maximal effective concentration (EC50) of 1000 to 10000 nM. The viability at 20 µM in the assay with HEK293 cells; N2a cells was in the range of 10 to 50%. For the same compound, in the assay with Ob/ob mice, the Glucose level reduction entry is “B (a 21-30% reduction in blood glucose)”.

With `Cc1ccc2cccc(-c3nc(-c4ccc(Br)s4)no3)c2n1` [Compound B2, 3-(5-Bromothiophen-2-yl)-5-(2-methylquinolin-8-yl)-1,2,4-oxadiazole], the concentration giving a half-maximal response (EC50) in the assay on CSM14.1 neuronal cells was in the range of 1000 to 10000 nM. Moreover, in the assay with HEK293 cells; N2a cells, the viability at 20 µM was 10 to 50%. The Glucose level reduction result in the assay with Ob/ob mice is “B (a 21-30% reduction in blood glucose)”.

With `Cc1ccc2cccc(-c3nc(-c4cc(Br)cs4)no3)c2n1` [Compound B3, 3-(4-Bromothienyl-2-yl)-5-(2-methylquinolin-8-yl)-1,2,4-oxadiazole], in the assay with CSM14.1 neuronal cells, the concentration giving a half-maximal response (EC50) lay in the range of 1000 to 10000 nM. In addition, the viability at 20 µM in the assay with HEK293 cells; N2a cells was more than 50%. In addition, the Glucose level reduction result in the assay on Ob/ob mice is reported as “A (a 10-20% reduction in blood glucose)”.
